Assay results taken from US20220235012A1, “ACID ADDITION SALT OF PYRIMETHAMINE” (GLG PHARMA S.A., priority 2018, published 2022).
Structures can show the parent of a compound that is named as a salt.

Key:
[1] = Solubility in terms of Ph. Eur. 9.2 (approximate volume of solvent per gram of solute); assay type: physicochemical; conditions: descriptive term
Description: The solubility of pyrimethamine salts with different organic and mineral acids was evaluated according to the general recommendations described in Ph. Eur. 9.2 for the pharmaceutical active ingredients. The “solubility” ° according to Ph. Eur. 9.2, is the approximate volume of solvent in millilitres per gram of solute.

[2] = Solubility of pyrimethamine salts, own method at 20° C. and 60° C. in water, 10% Tween 80 and 10% Cremophor RH 40; assay type: physicochemical; conditions: without surfactant and/or emulsifier
[3] = cited from earlier work

SMILES	Solubility in terms of Ph. Eur. 9.2 [1]	solubility in water at ambient temperature [2]	solubility of pyrimethamine in water [3]
CCc1nc(N)nc(N)c1-c1ccc(Cl)cc1 [Methanesulfonate, methanesulfonic acid salt of 5-(4-chlorophenyl)-6-ethyl-2,4-pyrimidinediamine]	Sparingly soluble	freely soluble	–
CCc1nc(N)nc(N)c1-c1ccc(Cl)cc1 [pyrimethamine, 5-(4-chlorophenyl)-6-ethyl-2,4-pyrimidinediamine]	–	–	10 µg/mL
